33 molecules from patent publication US7153869B2, “Substituted amino acids as erythropoietin mimetics” (priority 1998, dated 2006) can be followed below.

The target of the experiment is T1, EBP-Ig (N-terminal 225 amino acids of the human EPO receptor joined to an Ig heavy chain) (Homo sapiens, UniProt P19235).
T1 construct: Ig heavy chain (fusion partner); made in house; host or cells: NSO cells (secreted into conditioned media)
T1 sequence (P19235 25-250 limits assumed): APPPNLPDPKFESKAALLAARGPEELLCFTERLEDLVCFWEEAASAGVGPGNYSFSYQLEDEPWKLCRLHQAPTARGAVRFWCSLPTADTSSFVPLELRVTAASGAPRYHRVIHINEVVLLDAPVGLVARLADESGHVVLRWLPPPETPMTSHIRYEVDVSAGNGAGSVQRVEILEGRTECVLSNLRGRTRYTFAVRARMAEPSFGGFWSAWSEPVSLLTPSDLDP
The experiment in a line: Inhibition of [125I]EPO binding to immobilized EBP-Ig (EPO binding protein-Ig), scintillation Flash plate competition assay. The following applies: for IC30 μM (Inhibition of EPO binding to EBP-Ig): 0–500 μM test compound; for % inh @ 50 μM (Inhibition of EPO binding to EBP-Ig): 50 μM test compound, average % inhibition. The source says:
The interaction of biotin and streptavidin is frequently employed to capture and effectively immobilize reagents useful in assay protocols and has been employed here as a simple method to capture and immobilize EBP-Ig. EBP-Ig is initially randomly modified with an amine reactive derivative of biotin to produce biotinylated-EBP-Ig. Use of streptavidin coated plates allows the capture of the biotinylated EBP-Ig on the surface of a scintillant impregnated coated well (Flash plates, NEN-DuPont). […] The amount of light produced was quantified to estimate the amount of ligand binding. The specific assay format was suitable for the multi-well plate capacity of a Packard TopCount Microplate Scintillation counter.
Biotinylated EBP-Ig was prepared as follows. EBP-Ig (3 mL, OD280 2.9) was exchanged into 50 mM sodium bicarbonate, pH 8.5 using a Centriprep 10 ultrafiltration device. The final volume of the exchanged protein was 1.2 mL (OD280 2.6, representing about 2 mg total protein). 10 μL of a 4 mg/ml solution of NHS-LC-Biotin (Pierce) was added and the reaction mixture placed on ice in the dark for two hours. Unreacted biotin was removed by exchange of the reaction buffer into PBS in a Centriprep 10 device and the protein reagent aliquoted and stored at −70° C.
All wells were adjusted to a final DMSO concentration of 5%. […] After all additions were made, the plate was covered with an adhesive top seal and placed in the dark at room temperature overnight. The next day all liquid was aspirated from the wells to limit analyte dependent quench of the signal, and the plates were counted on a Packard TOPCOUNT Microplate Scintillation Counter. […] Corrected total binding (CTB) was calculated as: TB−NSB=CTB. […] Table 1 lists the average % inhibition, and if determined the IC50 and IC30 values for compounds of Formula I, where the compound numbers refer to the compounds in the tables accompanying the preparative examples.

Setting [1] is: read-out: % inh @ 50 μM (Inhibition of EPO binding to EBP-Ig).
Setting [2] is: read-out: IC50, μM (Inhibition of EPO binding to EBP-Ig), 0.5 nM [125I]EPO, concentration reducing corrected total binding to 50%.
Setting [3] is: read-out: EPO/EBP-Ig % inh @ 50 μM, Table 7, 50 μM.

Like-named read-outs stand apart in the source and are kept apart here.

Consider `O=C(O)C(F)(F)F.O=C(O)[C@H](CO)NC/C=C/c1cccc(Oc2cccc(C(F)(F)F)c2)c1` [compound 350], for which the “EPO/EBP-Ig % inh @ 50 μM” value (50 μM compound, Table 20A) stood at 23%. In the case of `COC(=O)[C@H](CCCCNC(=O)OCc1ccccc1)NC/C=C/c1ccc(C(=O)O)cc1` [compound 323], for the setting “50 μM compound, Table 18A”, the “EPO/EBP-Ig % inh @ 50 μM” value was 6%. Regarding `CC(C)(C)OC(=O)CC[C@H](NC/C=C/c1cccc(Oc2ccc(Cl)c(Cl)c2)c1)C(=O)O` [compound 341], for the setting “50 μM compound, Table 19A”, the “EPO/EBP-Ig % inh @ 50 μM” value turned out to be 19%. The same measure, in the same setting: the result for `COC(=O)[C@H](CCC(=O)O)NC/C=C/c1cccc(Oc2ccc(Cl)c(Cl)c2)c1.O=C(O)C(F)(F)F` [compound 328] reads 33%. Turning to `Cc1ccc(Oc2cccc(CN(Cc3cccc(NCc4ccccc4F)c3)C(CC(=O)O)C(=O)O)c2)cc1` (stereo not shown) [compound 73], the “EPO/EBP-Ig % inh @ 50 μM” value (Table 4, 50 μM) was −13%. With `O=C(O)CC(C(=O)O)N(C/C=C/c1cccc(Oc2ccccc2)c1)C/C=C/c1cccc(Oc2ccccc2)c1` (stereo not shown) [compound 108], under “0.5 nM [125I]EPO”, the “IC30 μM (Inhibition of EPO binding to EBP-Ig)” value amounted to 23 µM. Also, the inhibition at 50 µM by setting is: under setting [1], 81%; (read-out: EPO/EBP-Ig % inh @ 50 μM, Table 6, 50 μM) 81%. As for `CC(=O)O.COC(=O)c1cccc(C=CCNC(CSCc2ccccc2)C(=O)OC)c1` (stereo not shown) [compound 368], under “0.5 nM [125I]EPO”, the “IC30 μM (Inhibition of EPO binding to EBP-Ig)” value is 90 µM and the “% inh @ 50 μM (Inhibition of EPO binding to EBP-Ig)” value is reported as 40%. Besides, the “EPO/EBP-Ig % inh @ 50 μM” value (50 μM compound) is given as 40%.

With `O=C(NCCCC[C@H](NC/C=C/c1ccc(C(F)(F)F)cc1)C(=O)O)OCc1ccccc1Cl.O=C(O)C(F)(F)F` [compound 313], the “EPO/EBP-Ig % inh @ 50 μM” value (50 μM compound, Table 18A) is given as 28%.

For `O=C(O)CC(C(=O)O)N(C/C=C/c1cccc(Oc2ccccc2)c1)Cc1cccc(Oc2ccccc2)c1` (stereo not shown) [compound 77], the IC50 stood at 40 µM. For the same molecule, the “IC30 μM (Inhibition of EPO binding to EBP-Ig)” value (0.5 nM [125I]EPO) turned out to be 30 µM. Also, the inhibition at 50 µM under setting [1] came out at 52%. In addition, the inhibition at 50 µM (read-out: EPO/EBP-Ig % inh @ 50 μM, Table 5, 50 μM) was found to be 52%.

With `O=C(O)CCC(=O)NCCCCC(C(=O)NCCCOCCOCCOCCCNC(=O)C(CCCCNC(=O)CCC(=O)O)N(Cc1ccc(OCc2ccccc2)cc1)Cc1ccc(OCc2ccccc2)cc1)N(Cc1ccc(OCc2ccccc2)cc1)Cc1ccc(OCc2ccccc2)cc1` (stereo not shown) [compound 271], under “0.5 nM [125I]EPO”, the “IC30 μM (Inhibition of EPO binding to EBP-Ig)” value was found to be 2 µM and the “% inh @ 50 μM (Inhibition of EPO binding to EBP-Ig)” value worked out at 77%. Besides, under “50 μM compound, Table 13”, the “EPO/EBP-Ig % inh @ 50 μM” value is given as 77%. For the same molecule, under setting [2], the IC50 worked out at 7 µM. Regarding `O=C(O)CC(C(=O)O)N(Cc1cccc(NCc2ccccc2)c1)Cc1cccc(Oc2ccccc2)c1` (stereo not shown) [compound 63], where the note is “Table 4, 50 μM”, the “EPO/EBP-Ig % inh @ 50 μM” value is 20%.

Take `CC(C(=O)O)N(CC=Cc1cccs1)CC=Cc1cccs1` (stereo not shown) [compound 54]: the “EPO/EBP-Ig % inh @ 50 μM” value (Table 3, 50 μM) is reported as 18%. `COC(=O)C(CCCCN)N(Cc1ccc(OCc2ccccc2)cc1)Cc1cccc([N+](=O)[O-])c1` (stereo not shown) [compound 114]: the “IC30 μM (Inhibition of EPO binding to EBP-Ig)” value (0.5 nM [125I]EPO) came out at 10 µM. Moreover, the inhibition at 50 µM is, setting by setting: under setting [1], 37%; under setting [3], 37%. With `COc1cccc(CCNC(=O)C(CCCCN)N(C/C=C/c2ccc([N+](=O)[O-])cc2)C/C=C/c2ccc([N+](=O)[O-])cc2)c1` (stereo not shown) [compound 233], the “EPO/EBP-Ig % inh @ 50 μM” value (50 μM compound, Table 10) came out at 18%. For the molecule `CC(=O)O.COC(=O)c1cccc(C=CCNC(C(=O)OC)C(C)C)c1` (stereo not shown) [compound 371], the “EPO/EBP-Ig % inh @ 50 μM” value (50 μM compound) is 16%. On to `COC(=O)C(CCCCNC(=O)OC(C)(C)C)N(Cc1cccc(OCc2ccccc2)c1)Cc1cccc(OCc2ccccc2)c1` (stereo not shown) [compound 109], for which, where the note is “Table 7, 50 μM”, the “EPO/EBP-Ig % inh @ 50 μM” value stood at 7%.

Take `O=C(O)C(F)(F)F.O=C(O)CC[C@H](NC/C=C/c1cccc(Oc2ccc(Cl)c(Cl)c2)c1)C(=O)O` [compound 332]: the “EPO/EBP-Ig % inh @ 50 μM” value (50 μM compound, Table 19A) was 17%. With `O=C(O)CCC(NCC=Cc1cccc(Oc2ccccc2)c1)C(=O)O` (stereo not shown) [cpd 326, N-(3-Phenoxycinnamyl)Glu-OH], the “EPO/EBP-Ig % inh @ 50 μM” value (50 μM compound, Table 19A) was 0%. Take `COC(=O)C(CCCCN)N(C/C=C/c1cccc(Oc2ccc(C(C)(C)C)cc2)c1)C/C=C/c1cccc(Oc2ccc(C(C)(C)C)cc2)c1` (stereo not shown) [compound 182]: under “50 μM compound, Table 9”, the “EPO/EBP-Ig % inh @ 50 μM” value was 18%. Turning to `O=C(O)CCC(C(=O)O)N(C/C=C/c1ccc(NC(=O)c2ccc(-c3ccccc3)cc2)cc1)Cc1ccc(OCc2ccccc2)cc1` (stereo not shown) [compound 90], the “EPO/EBP-Ig % inh @ 50 μM” value (Table 5, 50 μM) amounted to 29%. In the case of `COc1ccc(CCNC(=O)C(CCCCN)N(C/C=C/c2ccccc2)C/C=C/c2ccccc2)cc1OC` (stereo not shown) [compound 221], where the note is “0.5 nM [125I]EPO”, the “IC30 μM (Inhibition of EPO binding to EBP-Ig)” value amounted to 10 µM and the “% inh @ 50 μM (Inhibition of EPO binding to EBP-Ig)” value is reported as 48%. The “EPO/EBP-Ig % inh @ 50 μM” value (50 μM compound, Table 10) worked out at 48%. Further, under setting [2], the IC50 is 80 µM. In the case of `CC(C)(C)OC(=O)CCC(C(=O)OC(C)(C)C)N(C/C=C/c1cccc(Oc2ccc(C(C)(C)C)cc2)c1)C/C=C/c1cccc(Oc2ccc(C(C)(C)C)cc2)c1` (stereo not shown) [compound 102], the “EPO/EBP-Ig % inh @ 50 μM” value (Table 6, 50 μM) is listed as 5%. As for `O=C(O)CCC(C(=O)O)N(CC=Cc1cccs1)CC=Cc1cccs1` (stereo not shown) [compound 52], for the setting “Table 3, 50 μM”, the “EPO/EBP-Ig % inh @ 50 μM” value was found to be 21%.

Turning to `CC(C)(C)c1ccc(Oc2cccc(/C=C/CN(C/C=C/c3cccc(Oc4ccc(C(C)(C)C)cc4)c3)[C@@H](CO)C(=O)O)c2)cc1.O=C(O)C(F)(F)F` [compound 309], under “50 μM compound, Table 16A”, the “EPO/EBP-Ig % inh @ 50 μM” value was determined as 13%.

Regarding `CC(C)(C)OC[C@@H](C(=O)O)N(C/C=C/c1ccc(-c2ccccc2)cc1)C/C=C/c1ccc(-c2ccccc2)cc1` [compound 301], under “50 μM compound, Table 16A”, the “EPO/EBP-Ig % inh @ 50 μM” value amounted to 25%. For the molecule `CC(C)(C)OC(=O)CC(C(=O)NCCCOCCOCCOCCCNC(=O)C(CC(=O)OC(C)(C)C)N(C/C=C/c1cccc(Oc2ccc(C(C)(C)C)cc2)c1)C/C=C/c1cccc(Oc2ccc(C(C)(C)C)cc2)c1)N(C/C=C/c1cccc(Oc2ccc(C(C)(C)C)cc2)c1)C/C=C/c1cccc(Oc2ccc(C(C)(C)C)cc2)c1` (stereo not shown) [compound 253], the “EPO/EBP-Ig % inh @ 50 μM” value (50 μM compound, Table 12) was −5%. On to `COC(=O)C(CCC(=O)OC(C)(C)C)N(C/C=C/c1cccc(Oc2ccc(Cl)c(Cl)c2)c1)C/C=C/c1cccc(Oc2ccc(Cl)c(Cl)c2)c1` (stereo not shown) [compound 99], for which the “EPO/EBP-Ig % inh @ 50 μM” value (Table 6, 50 μM) was determined as 13%. Turning to `CC(C)(C)OC(=O)CC(C(=O)NCCCOCCOCCOCCCNC(=O)C(CC(=O)OC(C)(C)C)N(Cc1ccc(OCc2ccccc2)cc1)Cc1ccc(OCc2ccccc2)cc1)N(Cc1ccc(OCc2ccccc2)cc1)Cc1ccc(OCc2ccccc2)cc1` (stereo not shown) [compound 242], where the note is “Table 11, 50 μM”, the “EPO/EBP-Ig % inh @ 50 μM” value is 1%. On to `O=C(O)CC(C(=O)O)N(Cc1cccc(NCc2ccc(F)cc2)c1)Cc1cccc(Oc2ccccc2)c1` (stereo not shown) [compound 70], for which, under “Table 4, 50 μM”, the “EPO/EBP-Ig % inh @ 50 μM” value was −8%. Regarding `NC(=O)C[C@H](NC/C=C/c1ccc(C(F)(F)F)cc1)C(=O)O.O=C(O)C(F)(F)F` [compound 367], for the setting “50 μM compound”, the “EPO/EBP-Ig % inh @ 50 μM” value was found to be 0%. As for `CC(C)(C)OC(=O)CC(C(=O)NCCCOCCCCOCCCNC(=O)C(CC(=O)OC(C)(C)C)N(Cc1ccc(OCc2ccccc2)cc1)Cc1ccc(OCc2ccccc2)cc1)N(Cc1ccc(OCc2ccccc2)cc1)Cc1ccc(OCc2ccccc2)cc1` (stereo not shown) [compound 241], the “EPO/EBP-Ig % inh @ 50 μM” value (Table 11, 50 μM) is reported as 2%.

Turning to `COC(=O)C(CCCCN)N(Cc1ccc(OCc2ccccc2)cc1)Cc1cccc(N)c1` (stereo not shown) [compound 115], the inhibition at 50 µM reads like this: under setting [1], 35%; under setting [3], 35%.

With `NCCCCC(C(=O)O)N(Cc1cccc(Oc2ccccc2)c1)C(=O)/C=C/c1ccc(Oc2ccccc2)cc1` (stereo not shown) [compound 289], the “EPO/EBP-Ig % inh @ 50 μM” value (50 μM compound, Table 15) was 20%.
